Marks after values point to notes of the source that are not given here.
How the values were obtained:
Format in all cases: physicochemical
[1] = Fluorescence maximum of the dye
Text: (§1) Examples of the compounds according to the invention are listed in Tables 2-6, where the structures as well as the absorption and fluorescence maxima are indicated. The spectra of selected compounds are shown FIGS. 5-18.

[2] = Lactone or pseudobase formation in aqueous weakly alkaline solution; settings: aqueous weakly alkaline solutions; reversible
Text: Normally such lactones are adequately stabilized only in aprotic solvents such as acetone or chloroform. In protic solvents the carboxyl group is deprotonated and a slightly more short-wave absorbing and fluorescent zwitterion is formed. In the exemplary compounds, however, colorless compounds are formed due to the strong electron attraction of the indicated substituents, due to internal ester formation and the associated interruption of the conjugated system. If the carboxyl group is not free but is present as an ester or tertiary amide, so-called pseudobases are formed, through nucleophilic attack (hydroxide ions etc.) at the central carbon atom, which is stronger positivized by the electron-attracting substituents, which pseudobases are likewise colorless due to the interruption of the conjugated system. Both reactions are reversible; by changing the pH value, the dielectric constant (“polarity”) and/or the capability of hydrogen bridge bonding (“proticity”), the dye can be restored. Therefore such compounds can in principle be used as probes for the properties of their direct environment: Depending on the milieu, the molecules are present in colorless or colored form. Associated therewith is also a sort of fluorogenicity, because the longwave fluorescence appears only in the dye form.

[3] = Absorption maximum of the dye
Text: as §1

[4] = Fluorescence quencher property (dye itself not fluorescent)
Text: A particular subgroup of the compounds according to the invention is fluorescence quenchers. These dyes are not fluorescent themselves, but can act as acceptors for the emission of fluorescent compounds. A widespread area of use of such quenchers is for instance the measurement of the geometry (distances, size, and arrangement of molecular groups) or the reactivity (enzyme activity, reaction speeds, etc.) using Förster resonance energy transfer (FRET). The fluorescence of the donor can only appear when the distance between donor and acceptor exceeds a critical value. Below this distance, the fluorescence of the donor is quenched by the acceptor (=quencher) which is not fluorescent by itself. An overview of the bioanalytical applications of the FRET technology is provided for example by A. Roda, M. Guardigli, E. Micheline, M. Mirasoli, Nanobioanalytical luminescence: Förster-type energy transfer methods, Anal. Bioanal. Chem. 393, 2009, 109-123.
Examples of quenchers according to the invention are compounds 14, 15, 16 and 17. These rhodamines represent a further development of the dyes designated as “violamines” because of their magenta-colored solutions, see for example H. E. Fierz-David, Künstliche Organische Farbstoffe [Artificial Organic Dyes], Springer-Verlag, Berlin, 1926, p. 276ff. However, also the structure of other dye classes may be modified in this way. Examples according to the invention include compounds 49, 50 and 51 from the class of carbopyronines.

SMILES	λfl ([1]; solvent PBS pH 7.4)	λabs ([3]; solvent PBS pH 7.4)	other results
C[N+](C)=C1C=CC2=C(NC(CCS(=O)(=O)O)C(=O)O)c3cc4c(cc3C(C)(C)C2=C1)N(Cc1ccc(S(=O)(=O)O)cc1S(=O)(=O)O)CCC4 (stereo not drawn) [Compound 85]	673^b nm	496^b nm	–
CCN(CS(=O)(=O)O)c1ccc2c(c1)[Si](C)(C)C1=C/C(=[N+](/CC)CS(=O)(=O)O)C=CC1=C2NCCS(=O)(=O)O [Compound 87]	605^b nm	472^b nm	–
CCN(CS(=O)(=O)O)c1ccc2c(c1)[Si](C)(C)C1=C/C(=[N+](/CC)CS(=O)(=O)O)C=CC1=C2NCC(S(=O)(=O)O)S(=O)(=O)O [Compound 88]	605^b nm	471^b nm	–
CN(Cc1ccc(S(=O)(=O)O)cc1S(=O)(=O)O)c1ccc2c(c1)[Si](C)(C)C1=C/C(=[N+](/C)Cc3ccc(S(=O)(=O)O)cc3S(=O)(=O)O)C=CC1=C2C#N [Compound 89]	763^b nm	746^b nm	–
CN(Cc1ccc(S(=O)(=O)O)cc1S(=O)(=O)O)c1ccc2c(c1)[Si](C)(C)C1=C/C(=[N+](/C)Cc3ccc(S(=O)(=O)O)cc3S(=O)(=O)O)C=CC1=C2NCCCC(=O)O [Compound 90]	637^b nm	483^b nm	–
CC1(C)C=C(CS(=O)(=O)O)c2cc3c(cc2N1CCCC(=O)O)[Si](C)(C)c1cc2c(cc1=C3)C(CS(=O)(=O)O)=CC(C)(C)[N+]=2CS(=O)(=O)O [Compound 91]	738^b nm	715^b nm	–
CC1(C)C=C(CS(=O)(=O)O)c2cc3c(cc2N1CCCC(=O)O)[Si](C)(C)c1cc2c(cc1=C3C#N)C(CS(=O)(=O)O)=CC(C)(C)[N+]=2CCS(=O)(=O)O [Compound 92]	841^b nm	817^b nm	–
CC1(C)C=C(CS(=O)(=O)O)c2cc3c(cc2N1CCCC(=O)O)[Si](C)(C)c1cc2c(cc1=C3NCC(S(=O)(=O)O)S(=O)(=O)O)C(CS(=O)(=O)O)=CC(C)(C)[N+]=2CCS(=O)(=O)O [Compound 93]	695^b nm	516^b nm	–
C[Si]1(C)c2cc3c(cc2C=c2cc4c(cc21)=[N+](Cc1ccc(S(=O)(=O)O)cc1S(=O)(=O)O)CCC4)CCCN3CCCC(=O)O [Compound 94]	693^b nm	670^b nm	–
C[Si]1(C)c2cc3c(cc2C(NCCCC(=O)O)=c2cc4c(cc21)=[N+](Cc1ccc(S(=O)(=O)O)cc1S(=O)(=O)O)CCC4)CCCN3Cc1ccc(S(=O)(=O)O)cc1S(=O)(=O)O [Compound 95]	661^b nm	489^b nm	–
CC1(C)C=C(CS(=O)(=O)O)c2cc3c(cc2N1CCS(=O)(=O)O)[Si](C)(C)c1cc2c(cc1=C3NC(CCS(=O)(=O)O)C(=O)O)C(CS(=O)(=O)O)=CC(C)(C)[N+]=2CCS(=O)(=O)O (stereo not drawn) [Compound 96]	695^b nm	518^b nm	–
CC1(C)c2cc3c(cc2N=c2cc4c(cc21)=[N+](CCCC(=O)O)C(C)(C)CC4CS(=O)(=O)O)CCCN3Cc1ccc(S(=O)(=O)O)cc1S(=O)(=O)O (stereo not drawn) [Compound 102]	742^b nm	721^b nm	–
Cc1cc(=O)[nH]c2cc(NCS(=O)(=O)O)ccc12 [Compound 105]	413 nm	349 nm	λfl ([1]; solvent ethanol): 406 nm; λabs ([3]; solvent ethanol): 355 nm
Cc1cc(=O)n(CC(=O)O)c2cc(NCS(=O)(=O)O)ccc12 [Compound 106]	410^b nm	350^b nm	–
Cc1cc(=O)n(CC(=O)O)c2cc(NCc3ccc(S(=O)(=O)O)cc3S(=O)(=O)O)ccc12 [Compound 107]	413^b nm	351^b nm	–
Cc1cc(=O)n(CC(=O)O)c2cc(NCS(=O)(=O)O)c(S(=O)(=O)O)cc12 [Compound 108]	411^b nm	348^b nm	–
Cc1c(CC(=O)O)c(=O)oc2cc(NCS(=O)(=O)O)ccc12 [Compound 110]	353^b nm	354^b nm	–
Cc1c(CC(=O)O)c(=O)oc2cc(Nc3nc(Cl)nc(NCCS(=O)(=O)O)n3)ccc12 [Compound 112]	416^b nm	338^b nm	–
Cc1cc(=O)n(CC(=O)O)c2cc(Nc3nc(Cl)nc(NCCS(=O)(=O)O)n3)ccc12 [Compound 114]	385^b nm	338^b nm	–
Cc1cc(=O)n(CC(=O)O)c2cc(Nc3nc(NCCS(=O)(=O)O)nc(NCCS(=O)(=O)O)n3)ccc12 [Compound 115]	383^b nm	335^b nm	–

Continued, in another order:

λfl ([1]; solvent PBS pH 7.4)	λabs ([3]; solvent PBS pH 7.4)	SMILES	other results
556^b nm	–	O=C(O)C1CCCN1C(=O)c1ccccc1-c1c2cc(S(=O)(=O)O)/c(=N/Cc3ccc(S(=O)(=O)O)cc3S(=O)(=O)O)cc-2oc2cc(NCc3ccc(S(=O)(=O)O)cc3S(=O)(=O)O)c(S(=O)(=O)O)cc12 (stereo not drawn) [Compound 10]	formation of colorless lactone or pseudobase [2]: easily form a lactone or pseudobase; λabs ([3]; solvent water/acetonitrile 1:1): 534^c nm
550^b nm	–	O=C(O)C1CCN(C(=O)c2ccccc2-c2c3cc(S(=O)(=O)O)/c(=N/Cc4ccc(S(=O)(=O)O)cc4S(=O)(=O)O)cc-3oc3cc(NCc4ccc(S(=O)(=O)O)cc4S(=O)(=O)O)c(S(=O)(=O)O)cc23)CC1 [Compound 11]	formation of colorless lactone or pseudobase [2]: easily form a lactone or pseudobase; λabs ([3]; solvent water/acetonitrile 1:1): 529^c nm
–	560^b nm	O=C(O)c1ccccc1-c1c2cc/c(=N/c3ccc(S(=O)(=O)O)cc3)cc-2oc2cc(Nc3ccc(S(=O)(=O)O)cc3)ccc12 [Compound 14]	fluorescence quencher (not fluorescent itself, acceptor for emission of fluorescent compounds) [4]: quenchers
550^b nm	–	CN(CCCC(=O)O)C(=O)c1ccccc1-c1c2cc(S(=O)(=O)O)/c(=N/CCc3ccc(S(=O)(=O)O)cc3)cc-2oc2cc(N)c(S(=O)(=O)O)cc12 [Compound 20]	formation of colorless lactone or pseudobase [2]: easily form a lactone or pseudobase; λabs ([3]; solvent water/acetonitrile 1:1): 528^c nm
644^b nm	490^b nm	CC1(C)c2cc3c(cc2C(NCC(S(=O)(=O)O)S(=O)(=O)O)=c2cc4c(cc21)=[N+](Cc1ccc(S(=O)(=O)O)cc1S(=O)(=O)O)C(C)(C)C=C4CS(=O)(=O)O)CCCN3CCCC(=O)O [Compound 84]	–
660^b nm	502^b nm	CC1(C)c2cc3c(cc2C(NCC(S(=O)(=O)O)S(=O)(=O)O)=c2cc4c(cc21)=[N+](Cc1ccc(S(=O)(=O)O)cc1S(=O)(=O)O)C(C)(C)C=C4CS(=O)(=O)O)C(CS(=O)(=O)O)=CC(C)(C)N3CCCC(=O)O [Compound 86]	–
667^b nm	649^b nm	CC1(C)CC(CS(=O)(=O)O)c2cc3c(cc2=[N+]1CCCC(=O)O)Oc1cc(N(Cc2ccc(S(=O)(=O)O)cc2S(=O)(=O)O)Cc2ccc(S(=O)(=O)O)cc2S(=O)(=O)O)ccc1N=3 (stereo not drawn) [Compound 97]	–
682^b nm	664^b nm	CC1(C)CC(CS(=O)(=O)O)c2cc3c(cc2=[N+]1CCCC(=O)O)Oc1cc2c(cc1N=3)CCCN2Cc1ccc(S(=O)(=O)O)cc1S(=O)(=O)O (stereo not drawn) [Compound 98]	–
700^b nm	682^b nm	CC1(C)C=C(CS(=O)(=O)O)c2cc3c(cc2=[N+]1CCCC(=O)O)Oc1cc2c(cc1N=3)CCCN2Cc1ccc(S(=O)(=O)O)cc1S(=O)(=O)O [Compound 99]	–
718^b nm	701^b nm	CC1(C)C=C(CS(=O)(=O)O)c2cc3c(cc2N1Cc1ccc(S(=O)(=O)O)cc1S(=O)(=O)O)Oc1cc2c(cc1=N3)C(CS(=O)(=O)O)=CC(C)(C)[N+]=2CCCC(=O)O [Compound 100]	–
678^b nm	647^b nm	CC1(C)CC(CS(=O)(=O)O)c2cc3c(cc2=[N+]1Cc1ccc(S(=O)(=O)O)cc1S(=O)(=O)O)Oc1cc(N)c2cc(S(=O)(=O)O)ccc2c1N=3 (stereo not drawn) [Compound 101]	–
761^b nm	740^b nm	CC1(C)c2cc3c(cc2N=c2cc4c(cc21)=[N+](CCCC(=O)O)C(C)(C)C=C4CS(=O)(=O)O)CCCN3Cc1ccc(S(=O)(=O)O)cc1S(=O)(=O)O [Compound 103]	–
778^b nm	758^b nm	CC1(C)c2cc3c(cc2N=c2cc4c(cc21)=[N+](CCCC(=O)O)C(C)(C)C=C4CS(=O)(=O)O)C(CS(=O)(=O)O)=CC(C)(C)N3Cc1ccc(S(=O)(=O)O)cc1S(=O)(=O)O [Compound 104]	–
418^b nm	349^b nm	Cc1cc(=O)n(CC(=O)O)c2cc(NCc3ccc(S(=O)(=O)O)cc3S(=O)(=O)O)c(S(=O)(=O)O)cc12 [Compound 109]	–
449^b nm	348^b nm	Cc1c(CC(=O)O)c(=O)oc2cc(NCc3ccc(S(=O)(=O)O)cc3S(=O)(=O)O)c(S(=O)(=O)O)cc12 [Compound 111]	–
